Test results: patent publication US20250381179A1, “CHROMAN-BASED COMPOUNDS FOR TREATING CANCER” (priority 2024, published 2025)

Experiment: Phase 1 study: safety and tolerability (TEAEs, NCI CTCAE v5.0)
Procedure: The study employed an open-label, 3+3 design, with the option of adding backfill patients to each cohort cleared and deemed safe. […] Tumor responses were assessed every 2 cycles using RECIST v1.1 criteria. […] The study also involves an ongoing dose escalation study where participants receive 100 mg, 200 mg, 300 mg, 400 mg, and 600 mg once daily (QD) dose levels.
Safety was assessed through the analysis of the reported incidence of treatment-emergent AEs. Treatment-emergent AEs are those with an onset on or after the initiation of therapy and will be graded according to NCI CTCAE Version 5.0. Other safety endpoints, including laboratory results, vital signs, and ECG findings, were summarized for all patients in the Safety set.

## O=C1CC[C@H](N2Cc3cc(N4CCN(CC5CCN(c6ccc([C@@H]7c8ccc(O)cc8OC[C@@H]7c7ccccc7)cc6F)CC5)CC4)ccc3C2=O)C(=O)N1 [compound (1-g), (S)-3-(5-(4-((1-(2-fluoro-4-((3S,4R)-7-hydroxy-3-phenylchroman-4-yl)phenyl)piperidin-4-yl)methyl)piperazin-1-yl)-1-oxoisoindolin-2-yl)piperidine-2,6-dione]
200 mg QD (N = 12)
  TEAE: Urinary Tract Infection: 1 (8.3) n (%)
  TEAE: Vaginal Haemorrhage: 0 n (%)
  TEAE: Vomiting: 1 (8.3) n (%)
  related TEAE: Alopecia: 0 n (%)
  related TEAE: Arthralgia: 1 (8.3) n (%)
  related TEAE: Constipation: 0 n (%)
  related TEAE: Diarrhea: 0 n (%)
  related TEAE: Dysgeusia: 0 n (%)
  related TEAE: Eructation: 0 n (%)
  related TEAE: Fatigue: 1 (8.3) n (%)
  related TEAE: Flatulence: 0 n (%)
  related TEAE: Hot Flush: 1 (8.3) n (%)
  related TEAE: Hyperhidrosis: 0 n (%)
  related TEAE: Nail Disorder: 0 n (%)
  related TEAE: Nausea: 0 n (%)
  related TEAE: Neutrophil Count Decreased: 0 n (%)
  related TEAE: Platelet Count Decreased: 0 n (%)
  related TEAE: Tremor: 0 n (%)
  related TEAE: Vomiting: 0 n (%)
300 mg QD (N = 11)
  Patients with Any Compound (1-g) related TEAE: 5 (45.5) n (%)
  Patients with Any TEAE: 8 (72.7) n (%)
  TEAE: Abdominal Distension: 1 (9.1) n (%)
  TEAE: Abdominal Pain: 0 n (%)
  TEAE: Acute Kidney Injury: 1 (9.1) n (%)
  TEAE: Adrenal Insufficiency: 0 n (%)
  TEAE: Alopecia: 0 n (%)
  TEAE: Anaemia: 1 (9.1) n (%)
  TEAE: Anxiety: 1 (9.1) n (%)
  TEAE: Arthralgia: 0 n (%)
  TEAE: Axillary Vein Thrombosis: 0 n (%)
  TEAE: Back Pain: 1 (9.1) n (%)
  TEAE: Basal Cell Carcinoma: 0 n (%)
  TEAE: Breast Pain: 0 n (%)
  TEAE: Confusional State: 0 n (%)
  TEAE: Constipation: 1 (9.1) n (%)
  TEAE: Cough: 0 n (%)
  TEAE: Covid-19 Pneumonia: 0 n (%)
  TEAE: Dehydration: 1 (9.1) n (%)
  TEAE: Diarrhoea: 1 (9.1) n (%)
  TEAE: Dizziness: 1 (9.1) n (%)
  TEAE: Dysgeusia: 0 n (%)
  TEAE: Dyspepsia: 0 n (%)
  TEAE: Dyspnoea: 1 (9.1) n (%)
  TEAE: Dysuria: 1 (9.1) n (%)
  TEAE: Eructation: 0 n (%)
  TEAE: Fall: 0 n (%)
  TEAE: Fatigue: 1 (9.1) n (%)
  TEAE: Flatulence: 1 (9.1) n (%)
  TEAE: Fracture: 0 n (%)
  TEAE: Fungal Infection: 1 (9.1) n (%)
  TEAE: Haematoma: 1 (9.1) n (%)
  TEAE: Hot Flush: 2 (18.2) n (%)
  TEAE: Hyperglycaemia: 0 n (%)
  TEAE: Hyperhidrosis: 0 n (%)
  TEAE: Hypokalaemia: 1 (9.1) n (%)
  TEAE: Hypotension: 0 n (%)
  TEAE: Influenza Like Illness: 0 n (%)
  TEAE: Insomnia: 0 n (%)
  TEAE: Lower Respiratory Tract Congestion: 0 n (%)
  TEAE: Lymphocyte Count Decreased: 0 n (%)
  TEAE: Muscle Spasm: 0 n (%)
  TEAE: Muscular Weakness: 0 n (%)
  TEAE: Musculoskeletal Stiffness: 0 n (%)
  TEAE: Nail Disorder: 0 n (%)
  TEAE: Nasal Congestion: 0 n (%)
  TEAE: Nausea: 4 (36.4) n (%)
  TEAE: Neutrophil Count Decreased: 1 (9.1) n (%)
  TEAE: Oedema Peripheral: 1 (9.1) n (%)
  TEAE: Ophthalmic Migraine: 0 n (%)
  TEAE: Oral Pain: 1 (9.1) n (%)
  TEAE: Pain In Extremity: 0 n (%)
  TEAE: Pharyngitis: 0 n (%)
  TEAE: Platelet Count Decreased: 1 (9.1) n (%)
  TEAE: Pleural Effusion: 1 (9.1) n (%)
  TEAE: Pneumonia: 0 n (%)
  TEAE: Productive Cough: 0 n (%)
  TEAE: Rash Maculo-Papular: 0 n (%)
  TEAE: Rhinitis Allergic: 1 (9.1) n (%)
  TEAE: Rib Fracture: 0 n (%)
  TEAE: Seizure: 0 n (%)
  TEAE: Sepsis: 0 n (%)
  TEAE: Tremor: 1 (9.1) n (%)
  TEAE: Upper Respiratory Tract Infection: 1 (9.1) n (%)
  TEAE: Urinary Tract Infection: 1 (9.1) n (%)
  TEAE: Vaginal Haemorrhage: 1 (9.1) n (%)
  TEAE: Vomiting: 1 (9.1) n (%)
  related TEAE: Alopecia: 0 n (%)
  related TEAE: Arthralgia: 0 n (%)
  related TEAE: Constipation: 1 (9.1) n (%)
  related TEAE: Diarrhea: 1 (9.1) n (%)
  related TEAE: Dysgeusia: 0 n (%)
  related TEAE: Eructation: 0 n (%)
  related TEAE: Fatigue: 1 (9.1) n (%)
  related TEAE: Flatulence: 0 n (%)
  related TEAE: Hot Flush: 2 (18.2) n (%)
  related TEAE: Hyperhidrosis: 0 n (%)
  related TEAE: Nail Disorder: 0 n (%)
  related TEAE: Nausea: 3 (27.3) n (%)
  related TEAE: Neutrophil Count Decreased: 0 n (%)
  related TEAE: Platelet Count Decreased: 0 n (%)
  related TEAE: Tremor: 0 n (%)
  related TEAE: Vomiting: 1 (9.1) n (%)
400 mg QD (N = 6)
  Patients with Any Compound (1-g) related TEAE: 3 (50.0) n (%)
  Patients with Any TEAE: 4 (66.7) n (%)
  TEAE: Abdominal Distension: 0 n (%)
  TEAE: Abdominal Pain: 0 n (%)
  TEAE: Acute Kidney Injury: 0 n (%)
  TEAE: Adrenal Insufficiency: 0 n (%)
  TEAE: Alopecia: 1 (16.7) n (%)
  TEAE: Anaemia: 0 n (%)
  TEAE: Anxiety: 0 n (%)
  TEAE: Arthralgia: 0 n (%)
  TEAE: Axillary Vein Thrombosis: 0 n (%)
  TEAE: Back Pain: 0 n (%)
  TEAE: Basal Cell Carcinoma: 0 n (%)
  TEAE: Breast Pain: 0 n (%)
  TEAE: Confusional State: 0 n (%)
  TEAE: Constipation: 1 (16.7) n (%)
  TEAE: Cough: 0 n (%)
  TEAE: Covid-19 Pneumonia: 0 n (%)
  TEAE: Dehydration: 0 n (%)
  TEAE: Diarrhoea: 1 (16.7) n (%)
  TEAE: Dizziness: 0 n (%)
  TEAE: Dysgeusia: 1 (16.7) n (%)
  TEAE: Dyspepsia: 0 n (%)
  TEAE: Dyspnoea: 1 (16.7) n (%)
  TEAE: Dysuria: 0 n (%)
  TEAE: Eructation: 1 (16.7) n (%)
  TEAE: Fall: 0 n (%)
  TEAE: Fatigue: 2 (33.3) n (%)
  TEAE: Flatulence: 1 (16.7) n (%)
  TEAE: Fracture: 0 n (%)
  TEAE: Fungal Infection: 0 n (%)
  TEAE: Haematoma: 0 n (%)
  TEAE: Hot Flush: 0 n (%)
  TEAE: Hyperglycaemia: 0 n (%)
  TEAE: Hyperhidrosis: 0 n (%)
  TEAE: Hypokalaemia: 0 n (%)
  TEAE: Hypotension: 1 (16.7) n (%)
  TEAE: Influenza Like Illness: 0 n (%)
  TEAE: Insomnia: 1 (16.7) n (%)
  TEAE: Lower Respiratory Tract Congestion: 0 n (%)
  TEAE: Lymphocyte Count Decreased: 0 n (%)
  TEAE: Muscle Spasm: 1 (16.7) n (%)
  TEAE: Muscular Weakness: 1 (16.7) n (%)
  TEAE: Musculoskeletal Stiffness: 0 n (%)
  TEAE: Nail Disorder: 1 (16.7) n (%)
  TEAE: Nasal Congestion: 0 n (%)
